The values below come from patent publication US12702665B2, “ExoVII inhibitor and quinolone antibiotic combination useful for treating bacterial infection” (The United States of America, As Represented by the …, priority 2020, dated 2026).

Assay [1] has as its target T1, ExoVII (Escherichia coli, UniProt P04994).
T1 construct: purchased ThermoFisher or NEB
The experiment in a line: In-vitro ExoVII cleavage assay (IC50 determination). In kind it is biochemical. How it is done: FIG. 13A, FIG. 13B, FIG. 13C, and FIG. 13D. CPID is a specific ExoVII inhibitor. FIG. 13A. […] FIG. 13B. […] FIG. 13C. […] Representative gel image and quantification are shown. IC50 value was averaged from 5 independent experiments. FIG. 13D. CPID is not toxic to HEK293 or MEF cells as determined by relative confluency of seeded cells after 72-hour treatment at the indicated CPID concentration.
ExoVII reactions were incubated at 37° C. for 1 or 2 hrs followed by inactivation at 55° C. for 30 mins before terminated by addition of 20 μL formamide gel loading buffer (96% (v/v) formamide, 10 mM ethylenediaminetetraacetic acid, 1% (w/v) xylene cyanol and 1% (w/v) bromophenol blue). For IC50 determination, ExoVII was preincubated with the inhibitor at 25° C. for 5 mins before addition of equal volume of DNA solution and the reaction continued for another 20-30 mins. The 10 μL reaction contained 0.025 U/μL ExoVII, 20-100 nM internally ratio-labeled DNA substrate, and indicated inhibitor concentration in buffer with 50 mM potassium acetate, 20 mM trisacetate (pH=7.9), 10 mM magnesium acetate, 1 mM DTT and 10% (v/v) DMSO. The percentage of products in the presence of inhibitor was normalized to that of control reaction without any inhibitors, and resulting plot was fitted to a nonlinear regression function in Prism. DNA gyrase was purified as previously described.

Assay [2] concerns WT-pgyrA-S83L. The experiment in a line: Synergy with ciprofloxacin in quinolone-resistant strain (OD600 growth). The format is cell-based, E. coli. How it is done: (§1) OD600 was measured at the end of 4-hr incubation at 37° C. shaking at 225 rpm and cell densities were normalized to samples without any drug treatment. Toxicity of compounds were measured by treating either HEK293 or MEF (1000 cells in 96-well plates seeded 24-hr prior) with indicated concentrations of ExoVII inhibitor for 72 hours. The samples were imaged with a Cytation 5 (BioTek) and the confluency of each well were normalized to untreated samples.

Assay [3] relates to ΔxseA-pgyrA-S83L. The experiment in a line: Synergy with ciprofloxacin in quinolone-resistant ExoVII-deficient strain (OD600 growth). The format is cell-based, E. coli. The protocol: as §1
Assay [4] deals with ΔxseB-pgyrA-S83L. The description is as above. In kind it is cell-based, E. coli. The protocol:
as §1

The subject of assay [5] is Staphylococcus aureus strain HG003. The experiment in a line: Synergy with ciprofloxacin in Staphylococcus aureus cultures (OD600 growth). The format is cell-based. The note with it: gram-positive. How it is done: as §1
Assay [6] relates to E. coli strains carrying the gyrA-S83L mutation. As to the kind of experiment: MIC of ciprofloxacin (MIC test strips), quinolone-resistant gyrA-S83L strains. In kind it is cell-based.
The test system of assay [7] is E. coli pgyrAHis transformants deficient in ExoVII. As to the kind of experiment: Spotting assay on LB plates containing quinolones. The format is cell-based. The note with it: ΔxseA or ΔxseB pgyrAHis transformants vs wild-type. An excerpt: FIG. 8A, FIG. 8B, and FIG. 8C. Expression of a functional GyrAHis has no impact on sensitivities of E. coli strains to quinolones. FIG. 8A. Transformants of a single-copy plasmid bearing the gyrA gene including its endogenous promoter and a C-terminal His-tag (pgyrAHis) were established in either the wild-type, ΔxseA or ΔxseB strains. […] The asterisk denotes a non-specific band. FIG. 8B. Immunoblotting of the same transformants as in FIG. 8A, probed with anti-GyrA antibody (Abcam). FIG. 8C. […] Two technical replicates are shown.
Cell killing assays were carried out as previously described. Briefly, transformants harboring pBAD/Thio, pYtopA or pYtopA-R327W were grown in LB with 2% glucose and 50 μg/mL carbenicillin overnight and diluted 1:100 in LB with 50 μg/mL carbenicillin and grown to OD600 of 0.4. YTop1 or YTop1-R327W were induced by addition of 0.2% arabinose for 0.5-2 hrs. Post-induction cultures were then serially diluted and spotted onto LB plates with 2% glucose and 50 μg/mL carbenicillin and incubated at 37° C. overnight. Alternatively, exponentially growing transformants were serially diluted as indicated and spotted on LB plates containing 50 μg/mL carbenicillin and indicated concentrations of arabinose and incubated at 37° C. overnight.

T1 sequence (P04994 whole entry): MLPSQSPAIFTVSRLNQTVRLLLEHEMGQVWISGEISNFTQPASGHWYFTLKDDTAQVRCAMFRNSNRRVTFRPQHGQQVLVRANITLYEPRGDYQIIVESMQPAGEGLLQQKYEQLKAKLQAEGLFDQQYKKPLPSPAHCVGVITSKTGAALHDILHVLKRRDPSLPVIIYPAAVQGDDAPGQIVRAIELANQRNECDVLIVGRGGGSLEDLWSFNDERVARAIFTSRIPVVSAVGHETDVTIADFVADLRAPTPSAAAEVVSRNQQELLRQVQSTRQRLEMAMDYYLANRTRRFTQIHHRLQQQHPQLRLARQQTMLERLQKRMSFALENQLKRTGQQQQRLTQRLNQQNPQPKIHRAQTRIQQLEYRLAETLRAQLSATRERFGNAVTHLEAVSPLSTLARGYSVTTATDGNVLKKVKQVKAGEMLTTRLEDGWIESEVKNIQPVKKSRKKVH
T1 sequence (P0A8G9 whole entry, further chain): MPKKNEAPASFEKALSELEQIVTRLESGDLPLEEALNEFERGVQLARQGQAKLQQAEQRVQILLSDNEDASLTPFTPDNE

Regarding `O=C1Cc2ccc(-c3cccc(Cl)c3)cc2C(=O)N1` [CPID, 7-(3-chlorophenyl)-1,3(2H,4H)-Isoquinolinedione], half-maximal inhibition in assay [1] (IC50) required 2430 nM. Further, the Synergy with ciprofloxacin entry in assay [2] was “synergistic”; in assay [3], “not synergistic”; in assay [4], “not synergistic”; in assay [5], “clear synergy”.

With `O=C(O)c1cn(C2CC2)c2cc(N3CCNCC3)c(F)cc2c1=O` [ciprofloxacin], the “Decrease in ciprofloxacin MIC on inactivating either subunit of ExoVII” value in assay [6] (gyrA-S83L background) was ~ 2 fold. Also, the “Increase in ciprofloxacin MIC by gyrA-S83L” value in assay [6] (gyrA-S83L vs wild-type gyrA) came out at 10 fold. The “Sensitivity of ExoVII-deficient transformants to quinolones” value in assay [7] is reported as “hypersensitivity”.

For the molecule `CCn1cc(C(=O)O)c(=O)c2ccc(C)nc21` [nalidixic acid], in assay [7], the “Sensitivity of ExoVII-deficient transformants to quinolones” value is reported as “hypersensitivity”.
